Results: US20220281848A1, “PYRAZOLE-SUBSTITUTED PYRROLIDINONES AS HERBICIDES” (FMC Corporation, priority 2019, published 2022)

What was measured:
Type in all cases: in vivo
Conditions in all cases: after 13 d
[1] = test system: redroot pigweed (Amaranthus retroflexus, AMARE); assay: Test A pre-emergence, redroot pigweed
In short: (§1)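 Each compound is applied pre-emergence at 15.625, 62.5 or 250 g/ha, one day after seeds are sown in standard soil. Plants are then grown in a glasshouse at 24/16° C. with 14 h light and 65% humidity, and injury is scored 0–100 at 13 d.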

[2] = test system: velvetleaf (Abutilon theophrasti, ABUTH); assay: Test A post-emergence, velvetleaf
In short: (§2)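 Plants sown in standard soil were grown 8 d in a glasshouse (24/16 °C day/night, 14 h light, 65% humidity), then sprayed with compound in acetone/water (50:50) with 0.5% Tween 20 at 15.625, 62.5 or 250 g/ha. Damage was scored after 13 d (0 = none, 100 = total).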

[3] = test system: redroot pigweed (Amaranthus retroflexus, AMARE); assay: Test A post-emergence, redroot pigweed
In short: as §2

[4] = test system: ivy-leaved morning glory (Ipomoea hederacea, IPOHE); assay: Test A pre-emergence, ivy-leaved morning glory
In short: as §1

SMILES | damage to plant (100=total damage; 0=no damage) AMARE ([1]; Pre-Emergence at 15.625 g/ha) | damage to plant (100=total damage; 0=no damage) AMARE ([1]; Pre-Emergence at 62.5 g/ha) | damage to plant (100=total damage; 0=no damage) AMARE ([1]; Pre-Emergence at 250 g/ha) | damage to plant (100=total damage; 0=no damage) ABUTH ([2]; Post-Emergence at 15.625 g/ha) | damage to plant (100=total damage; 0=no damage) ABUTH ([2]; Post-Emergence at 62.5 g/ha) | damage to plant (100=total damage; 0=no damage) ABUTH ([2]; Post-Emergence at 250 g/ha) | damage to plant (100=total damage; 0=no damage) AMARE ([3]; Post-Emergence at 15.625 g/ha) | damage to plant (100=total damage; 0=no damage) AMARE ([3]; Post-Emergence at 62.5 g/ha) | damage to plant (100=total damage; 0=no damage) AMARE ([3]; Post-Emergence at 250 g/ha) | damage to plant (100=total damage; 0=no damage) IPOHE ([4]; Pre-Emergence at 15.625 g/ha) | damage to plant (100=total damage; 0=no damage) IPOHE ([4]; Pre-Emergence at 62.5 g/ha) | damage to plant (100=total damage; 0=no damage) IPOHE ([4]; Pre-Emergence at 250 g/ha)
CN1CC(c2cnn(C)c2C(F)(F)F)C(C(=O)Nc2cccc(F)c2F)C1=O (racemic) [Compound 25] | 0 | 0 | 0 | 0 | 0 | 0 | 0 | 0 | 0 | 0 | 0 | 0
CCn1nc([C@H]2CN(C)C(=O)[C@@H]2C(=O)Nc2cccc(F)c2F)c2ccc(F)cc21 [Compound 4] | 0 | 20 | 40 | 0 | 0 | 20 | 0 | 20 | 20 | 0 | 10 | 70
CN1CC(c2cc(C(F)(F)F)n(C)n2)C(C(=O)Nc2ccccc2F)C1=O (racemic) [Compound 9] | 0 | 0 | 20 | 0 | 0 | 0 | 0 | 0 | 0 | 50 | 0 | 0
CN1CC(c2cc(Cl)n(C)n2)C(C(=O)Nc2ccc(F)c(F)c2F)C1=O (racemic) [Compound 31] | 0 | 0 | 0 | 0 | 0 | 0 | 0 | 10 | 20 | 0 | 0 | 10
